Measurements: patent US11911396B2, “Use of compound in preparation of drug for treating cerebral small vessel disease” (GUANGZHOU CELLPROTEK PHARMACEUTICAL CO., LTD, priority 2017, dated 2024)

Columns and labels:
[1] = system: free hemoglobin; assay: Immunofluorescence of extravascular free hemoglobin in prefrontal cortex brain tissue, acute hypobaric hypoxia model; type: in vivo, cynomolgus monkeys (Macaca fascicularis); conditions: 7500 meters for 48 hours, compared with acute hypobaric hypoxia group, FIG. 1
Source text: FIG. 1. Acute hypobaric hypoxia caused an increase in extravascular distribution of free hemoglobin in the brain tissue of the prefrontal cortex of cynomolgus monkeys (Macaca fascicularis). […] B. MFI (Mean Fluorescence Intensity) was quantified using Nikon NIS-Element software. The statistics of the relative fluorescence intensity of free hemoglobin distributed extravascularly in the brain tissue of cynomolgus monkeys was shown, and one-way ANOVA analysis and Dunnutt's t test were used to perform statistical tests, **, p<0.01, ns, no statistical difference, n=4. NN: Normobaric Normoxia group; HH: Hypobaric Hypoxia group; HH+Triol: Hypobaric Hypoxia with Triol administration group; HH+PROG: Hypobaric Hypoxia with control drug administration group. PROG represents the control drug progesterone.
The thickness of paraffin sections was 5 μm. For fresh paraffin sections, the sections were dried at 37° C. overnight and then dried at 55° C. for 30 minutes. The sections were quickly placed in xylene for dewaxing. […] NIS-Elements Analysis software was used to analyze the fluorescence intensity of confocal images, which was then normalized with the fluorescence intensity per unit area according to the built-in scale. […]

[2] = system: CD163; assay: Immunofluorescence of CD163 in prefrontal cortex brain tissue, acute hypobaric hypoxia model; type: in vivo, cynomolgus monkeys; conditions: FIGS. 5A and 5B
Source text: FIG. 5. […] A. Immunofluorescence imaging of CD163 and Iba-1 in the brain tissue of cynomolgus monkeys. B. Statistics of relative fluorescence intensity of CD163 and Iba-1. C. Correlation analysis of relative fluorescence intensity of CD163 and Iba-1. NN: Normobaric Normoxia group; HH: Hypobaric Hypoxia group; HH+Triol: Hypobaric Hypoxia with Triol administration group; HH+PROG: Hypobaric Hypoxia with progesterone administration group. One-way ANOVA analysis and Dunnutt's t test were used to perform statistical tests, and in the latter each group was compared with the HH group, ***, p<0.001.
The thickness of paraffin sections was 5 μm. For fresh paraffin sections, the sections were dried at 37° C. overnight and then dried at 55° C. for 30 minutes. The sections were quickly placed in xylene for dewaxing. After fully dewaxing with xylene for 10 min for 3 times, absolute ethanol-95% ethanol-90% ethanol-80% ethanol-70% ethanol-50% ethanol-ddH2O were successively used for gradient rehydration. After rehydration, the sections were placed in EDTA antigen repair solution for microwave high temperature repair. After the repair was completed, it was allowed naturally cool down to room temperature. […] NIS-Elements Analysis software was used to analyze the fluorescence intensity of confocal images, which was then normalized with the fluorescence intensity per unit area according to the built-in scale. […]

Compound: C[C@@]12CCCC1C1C[C@@H](O)[C@@]3(O)C[C@@H](O)CC[C@]3(C)C1CC2 (stereo partly drawn) [Triol, 5α-androst-3β,5,6β-triol]
- distribution of extravascular free hemoglobin [1]: significantly reduced
- down-regulation of CD163 expression caused by acute hypobaric hypoxia [2]: significantly restored
